The subject of series [1] is MRSA USA 100 (ATCCBAA-1681). As to the kind of experiment: Minimum inhibitory concentration (MIC) assay, MRSA USA 100. As to conditions: Staphylococcus aureus; microdilution, overnight 35 °C; read-out: MRSA MICs USA 100. The class given is cell-based, meticillin-resistant Staphylococcus aureus. The text has this:
(§1) The 1163 FDA-approved drugs were purchased as a library set from Selleckchem (catalog #L1300). For MIC assays, Ivacaftor, Mupirocin and Tigecycline were purchased from Santa Cruz Biotechnology (Dallas, TX, USA). All other test compounds were purchased from Sigma-Aldrich (St. Louis, MO, USA) and were used without further purification. MRSA strains USA 100 (ATCCBAA-1681), USA 300 (ATCC-BAA-1680), USA400 (ATCC-BAA-1707) and VISA (ATCC-700699) were purchased from ATCC (Manassas, VA, USA).
(§2) The MICs of antibiotics and peptides were determined using the microdilution method from the Clinical and Laboratory Standards Institute (CLSI) guidelines. Briefly, bacteria were grown fresh from frozen stock in MH2 agar at 37 °C. After an overnight incubation, five MRSA colonies were selected to grow in cation-adjusted MH2 broth (BD Biosciences catalog #212322) in a shaker incubator at 37 °C, 220 RPM. Cells were grown to an optical density (OD600) of 0.15–0.16 using a Microplate Spectrophotometer (Molecular Devices Spectra Max Plus), which corresponds to 1–2 × 10^8 CFU/mL. Test compounds were constituted into 4 mM DMSO stock solutions and then subjected to two-fold serial dilution in a 96-well plate with concentrations ranging from 100 to 0.2 μM in duplicates. The amount of 50 μL of microbial culture containing ~1–2 × 10^6 CFU/mL of microbes in the respective broths was introduced into each well containing 50 μL of compound. After an overnight incubation at 35 °C, OD600 measurements were conducted using the Microplate Spectrophotometer. The MIC was defined as the lowest drug concentration (μM) required to inhibit microbial growth.

The test system of series [2] is MRSA USA 300 (ATCC-BAA-1680). As to the kind of experiment: Minimum inhibitory concentration (MIC) assay, MRSA USA 300. The class given is cell-based, meticillin-resistant Staphylococcus aureus. As to conditions: Staphylococcus aureus; microdilution, overnight 35 °C; read-out: MRSA MICs USA 300.
From the text: as §1, §2
For orientation: Broth dilution looks for growth in wells or tubes with falling amounts of substance.

Series [3] has as its system MRSA USA400 (ATCC-BAA-1707). As to the kind of experiment: Minimum inhibitory concentration (MIC) assay, MRSA USA 400. As to conditions: Staphylococcus aureus; microdilution, overnight 35 °C; read-out: MRSA MICs USA 400. It counts as cell-based, meticillin-resistant Staphylococcus aureus.
From the text: as §1, §2

In another series the test system is VISA (ATCC-700699). As to the kind of experiment: Minimum inhibitory concentration (MIC) assay, VISA. The class given is cell-based, meticillin-resistant Staphylococcus aureus. As to conditions: Staphylococcus aureus, ATCC 700699 / MRSA / VISA; microdilution, overnight 35 °C; read-out: MRSA MICs VISA.
From the text: as §1, §2

In series [4] the test system is Adult normal human epidermal keratinocytes (NHEK). As to the kind of experiment: Human epidermal keratinocyte viability (GI50) assay. It counts as cell-based. As to conditions: 120 h, 5 days incubation, CellTiter-Glo, read-out: Keratinocyte GI50. How it is done:
Adult normal human epidermal keratinocytes (NHEK) were purchased from Lonza (catalog #00192627, Basel, Switzerland) and cultured in keratinocyte growth medium (Lonza KGM-Gold Bullet Kit) containing growth supplements (Lonza Reagent Pack) at 5% CO2 (37 °C). The cell viability assay was performed using the CellTiter-Glo Luminescent Cell Viability Assay protocol from Promega (www.promega.com, Fitchburg, WI, USA). Briefly, NHEK were treated with test compounds in keratinocyte growth medium in 96-well plates (Thermo Scientific Nunclon Delta, Waltham, MA, USA). Treated cells were incubated for 5 days at 5% CO2 (37 °C). Promega CellTiter-Glo Reagent was added and plates were shaken on an orbital shaker for […]. Next, well contents (100 μL) from each well were transferred into opaque 96-well plates (PerkinElmer OptiPlate-96) and luminescence measured by a microplate reader (Tecan Safire2).

In series [5] the test system is panel of clinical MRSA strains (USA 100, USA 300, USA 400 and VISA). As to the kind of experiment: MIC assay against panel of clinical MRSA strains. It counts as cell-based, meticillin-resistant Staphylococcus aureus. As to conditions: Staphylococcus aureus, across USA 100, USA 300, USA 400 and VISA.
From the text: as §1, §2

Another series has as its system MRSA USA100. As to the kind of experiment: Single-point 10 μM bacteria growth inhibition assay. It counts as cell-based, meticillin-resistant Staphylococcus aureus. As to conditions: MRSA USA 100.
From the text: as §1
MRSA USA100 was grown from frozen glycerol stock on Mueller Hinton 2 (MH2) agar overnight at 37 °C. Five colonies were selected from the agar plate and grown in cation-adjusted MH2 broth (BD Biosciences catalog #212322, Franklin Lakes, NJ, USA) in a shaker incubator at 37 °C, 220 RPM. Cells were grown to 1–2 × 10^8 CFU/mL and diluted 1:100 in MH2 broth. An amount of 50 μL of test compounds pre-dissolved in MH2 broth at 20 μM concentrations were added in duplicates into each well in a 96-well plate. A total of 50 μL of bacteria inoculums containing ~1 × 10^6 CFU/mL of bacteria in MH2 broth was introduced into each well containing the test compounds. The final DMSO concentration was kept at 2.5% in each well. After an overnight incubation at 35 °C, optical density (OD600) of each well was determined using the Microplate Spectrophotometer (Molecular Devices Spectra Max Plus, Sunnyvale, CA, USA).

Another series has as its system mouse. Set-up: method as in PMID 12724731. As to conditions: cited from earlier work.
For series [6] the following is noted: intravenously administered; cited from earlier work.
Series [7] concerns MRSA USA300. As to the kind of experiment: Bactericidal/static determination assay. It counts as cell-based, meticillin-resistant Staphylococcus aureus. As to conditions: MRSA USA300, 4× MIC; bactericidal when ≥99.9% cell death. The method, then:
After the MICs of test compounds were determined using the microdilution method described in Section 2.2, the entire well contents (100 μL) corresponding to 4× the MIC of the antibiotic or peptide were transferred and spread on fresh sterile MH2 agar plates. The plates were incubated overnight at 37 °C and the number of colony forming units (CFU) was determined the next day. A compound was classified as bactericidal when ≥99.9% cell death was observed.

Series [8] relates to MRSA USA300. As to the kind of experiment: Time-kill assay. It counts as cell-based, meticillin-resistant Staphylococcus aureus. As to conditions: MRSA USA300, 4× MIC, within 6 h. The method, then:
Bacteria cells were grown to 1 × 10^8 CFU/mL in MH2 broth and then diluted […] into 5 mL aliquots to a density of 1 × 10^6 CFU/mL in a flask. Test compounds pre-dissolved in DMSO corresponding to 4× their MICs were then added into each flask with a final DMSO concentration of 2.5% v/v. The negative control was 2.5% DMSO. The flasks were incubated in a shaking incubator (220 RPM) at 37 °C. Samples (100 μL) were taken hourly from the flasks between t = 0 and t = 6 h. The samples were serially diluted in MH2 broth before plating on sterile MH2 agar and incubated overnight at 37 °C. A bacteria count for each plate was conducted the next day. A graph of Log CFU/mL was plotted against time to obtain the time-kill graph.

A further series has as its system rats. As to conditions: rat, cited from earlier work.
Where [9] appears, read: printed conversion of μM values.

Converted amounts (≈) assume the structure as drawn.

On to `O=c1[nH]cc(F)c(=O)[nH]1` [5-fluorouracil, 5-Fluorouracil], for which the MIC was 6.25 µM (≈ 0.813 µg/mL) in series [1]; 3.13 µM (≈ 0.407 µg/mL) in [2]; 3.13 µM (≈ 0.407 µg/mL) in [3]; 6.25 µM (≈ 0.813 µg/mL) with VISA (ATCC-700699); 3.13 to 6.25 µM in [5]. Moreover, in [4], the GI50 – broadly, the concentration at which growth is held to half of that of the control – amounted to 33.3 ± 2.6 µM. Moreover, the “Antibacterial activity in single-point screen” value (shortened to “Antibacterial activity”) in the series on MRSA USA100 was “either bacteriostatic or bactericidal”. Besides, the “intravenous LD50” value in the series with mouse is 81 mg/kg. The half-life (commonly the time needed for the level to fall by half in the phase considered) in series [6] was 10 to 16 min.
Regarding `CCC[C@@H]1C[C@@H](C(=O)N[C@@H]([C@H]2O[C@H](SC)[C@H](O)[C@@H](O)[C@H]2O)[C@H](C)Cl)N(C)C1` [Clindamycin], the MIC in series [1] is above 100 µM; in [2] it was 0.2 µM (≈ 0.085 µg/mL); in [3], 0.2 µM (≈ 0.085 µg/mL); in the series with VISA (ATCC-700699), above 100 µM. Moreover, the GI50 in [4] was above 50 µM.
With `C[C@H]1c2cccc(O)c2C(=O)C2=C(O)[C@]3(O)C(=O)C(C(N)=O)=C(O)[C@@H](N(C)C)[C@@H]3[C@@H](O)[C@@H]21` [Doxycycline], the MIC in [1] is 0.39 µM (≈ 0.173 µg/mL); in series [2], 0.78 µM (≈ 0.347 µg/mL); in series [3], 1.56 µM (≈ 0.693 µg/mL); with VISA (ATCC-700699) it was 12.5 µM (≈ 5.56 µg/mL). For the same compound, in series [4], the GI50 worked out at 36.9 ± 3.7 µM.
Take `O=c1[nH]c(=O)n([C@H]2C[C@H](O)[C@@H](CO)O2)cc1F` [Floxuridine]: the MIC was 0.025 µM (≈ 0.00615 µg/mL) in [1]; 0.00313 µM (≈ 0.000771 µg/mL) in series [2]; 0.0125 µM (≈ 0.00308 µg/mL) in series [3]; 0.00625 µM (≈ 0.00154 µg/mL) with VISA (ATCC-700699); 0.00313 to 0.025 µM in [5]; 0.77 to 6.16 ng/mL in series [5] (setting [9]). For the same compound, the GI50 in series [4] was above 100 µM. Also, the Bactericidal/static classification entry in the series with MRSA USA300 [7] was “bactericidal”. Also, the “log reduction in bacteria count” value with MRSA USA300 [8] is around 2 log. In addition, the “Antibacterial activity” value in the series on MRSA USA100 is listed as “either bacteriostatic or bactericidal”. For the same compound, the “intraperitoneal LD50” value in the series with rats (intraperitoneal) is 1600 mg/kg.
Regarding `Nc1ccn([C@@H]2O[C@H](CO)[C@@H](O)C2(F)F)c(=O)n1` [Gemcitabine], the MIC in [1] was 0.1 µM (≈ 0.0263 µg/mL); in series [2], 0.05 µM (≈ 0.0132 µg/mL); in series [3] it was 0.1 µM (≈ 0.0263 µg/mL); with VISA (ATCC-700699) it was 0.05 µM (≈ 0.0132 µg/mL); in series [5] it was 0.05 to 0.1 µM; in series [5] (setting [9]), 10 to 20 ng/mL. In addition, the GI50 in series [4] amounted to 1.9 ± 0.2 µM. In the series on MRSA USA100, the “Antibacterial activity” value was “either bacteriostatic or bactericidal”. Further, the “intravenous LD50” value in the series with rats (intravenous) was 236 mg/kg.

These data come from paper PMC4790305, “An FDA-Drug Library Screen for Compounds with Bioactivities against Meticillin-Resistant Staphylococcus aureus (MRSA)” (Antibiotics, 2015).
